Data set [1] is described as follows: Turbidity assay (absorbance at 350 nm). Format: physicochemical. The conditions noted are these: qualitative, tetra-lysine-tagged compared with K* peptide. Here is the method: Solutions with appropriate buffering agent at pH 4.0–8.0 as specified, NaCl as required and containing 40 μM ThT were prepared in Corning^TM black clear bottom 96-well plates (cat no. 3631). Peptides and proteins were diluted from concentrated stocks into buffer immediately prior to measurement. […] Plates were sealed with optically clear sealing film (Corning^TM, cat no. 6575) and loaded into a BMG POLARstar Omega microplate reader maintained at RT or 37 °C. Plates were shaken for 30 s at 700 rpm before first read (unless otherwise specified), and wells were excited at 440 nm, with fluorescence emission measured at 480 nm (filters +/– 10 nm). The gain was set at 1–5% from a buffer and ThT-containing sample. Assays were continued until fluorescence emission plateaued. Turbidity assays were performed concurrently to ThT assays, with absorbance at 350 nm measured after ThT emission measurement.

Data set [2] has as its system HT-29 cells. The experiment in a line: Confocal imaging of labelled peptides in fixed, permeabilised HT-29 cells. Format: cell-based, human. The conditions noted are these: 10 nM labelled peptide, 30 min, cells untreated (DMSO), apoptosis (TNF + BV-6) or necroptosis (TSZ), 6 h, washed. Here is the method:
HT-29 cells grown in TC treated T175 flasks (Corning^TM) were aspirated, washed once with RT DPBS then trypsinised with 0.3 vol warmed trypsin EDTA for 3–5 min at 37 °C twice. Trypsin was quenched with 0.7 vol warmed D10 and then the mixture was centrifuged 400×g at RT for 5 min. Supernatant was discarded, then cells were resuspended in warm supplemented DMEM. A small sample was diluted 1:10 in trypan blue and loaded onto a haemocytometer for cell counting, then the cell suspension was diluted in warmed DMEM to 8.5 × 10^4 cells/ml. Cells were seeded onto a 96-well clear bottom PhenoPlate (Revvity) coated in a collagen I matrix at 1.7 × 10^4 cells/well and incubated at 37 °C in 5% CO2 overnight.
CellTracker^TM Orange CMRA (Invitrogen) was diluted to 5 μM in DMEM and warmed to 37 °C. HT-29 cells were washed once in DPBS, then CellTracker^TM Orange (50 μl) was added to each well (excluding wells to be incubated with Alexa Fluor 594-labelled control peptide) and incubated at 37 °C in 5% CO2 for 45 min. Following incubation, CellTracker^TM Orange solution was aspirated and replaced with 150 μl D10. […]
Imaging was performed on an Opera Phenix (PerkinElmer) at 63X magnification (water immersion) in confocal mode using the parameters given below. […] Intensity thresholds were adjusted as indicated to remove background fluorescence based on control wells for image exports. […] Cell counts were identified using DAPI stain (Method C) and cytoplasm identified by CellTracker^TM Orange stain (Method B), and all subsequent analysis was conducted on Cy5 fluorescence detected within cells as determined by these parameters. Total Cy5 intensity analysis, as well as spot analysis (spots detected using Method B), was performed measuring number of detected spots, mean spot size (px^2) and spot fluorescence intensity (corrected and relative). […] Statistical significance between untreated, apoptosis and necroptosis induced conditions and between no peptide controls was determined by 2-way ANOVA testing using Tukey’s multiple comparisons tests.

Where a SMILES comes first, the peptide text is derived from it. Bridges are numbered along the chain shown (N, C = ends).

In the case of `CC(C)C[C@H](NC(=O)[C@H](C)NC(=O)[C@H](Cc1ccc(O)cc1)NC(=O)[C@H](Cc1ccccc1)NC(=O)[C@H](CCCNC(=N)N)NC(=O)[C@H](CCCCN)NC(=O)[C@H](C)NC(=O)[C@H](CCCNC(=N)N)NC(=O)[C@H](CC(C)C)NC(=O)[C@@H](NC(=O)[C@@H]1CSCC(=O)N[C@@H](Cc2ccc(O)cc2)C(=O)N[C@@H](C(C)C)C(=O)N[C@@H](CC(C)C)C(=O)N1)[C@@H](C)O)C(=O)N[C@@H](Cc1ccccc1)C(=O)N[C@@H](CC(C)C)C(=O)N[C@@H](CO)C(=O)NCC(=O)N[C@@H](CCCCN)C(=O)N[C@@H](CCCCN)C(=O)N[C@@H](CCCCN)C(=O)N[C@@H](CCCCN)C(=O)O` [A1Ktag] ({CH2CO}-YVLCTLRAKRFYALFLSGKKKK-OH; thioether N-4; C-terminus assumed), in data set [1], the solubility result is listed as “increased solubility”. Further, the “presence/binding of labelled peptide in fixed, permeabilised cells” value (from here on “presence/binding of labelled peptide”) in data set [2] was “observed inside all cells”.
As for `CC[C@H](C)[C@@H]1NC(=O)[C@H](Cc2ccc(O)cc2)NC(=O)[C@H](CCCNC(=N)N)NC(=O)[C@H](CO)NC(=O)[C@H](Cc2c[nH]c3ccccc23)NC(=O)[C@@H]2CCCN2C(=O)[C@H](C(C)C)NC(=O)[C@H](CC(N)=O)NC(=O)[C@H](Cc2ccccc2)NC(=O)[C@H](Cc2ccc(O)cc2)NC(=O)CSC[C@@H](C(=O)NCC(=O)N[C@@H](CCCCN)C(=O)N[C@@H](CCCCN)C(=O)N[C@@H](CCCCN)C(=O)N[C@@H](CCCCN)C(=O)O)NC(=O)[C@H](Cc2ccc(O)cc2)NC(=O)[C@H](Cc2ccc(O)cc2)NC(=O)[C@H](C(C)C)NC(=O)[C@H](CO)NC(=O)[C@H](CC(C)C)NC1=O` [A2Ktag] ({CH2CO}-YFNVPWSRYILSVYYCGKKKK-OH; thioether N-16; C-terminus assumed), the “presence/binding of labelled peptide” value in data set [2] was “observed inside all cells”.
`CC[C@H](C)[C@@H]1NC(=O)[C@H](Cc2ccc(O)cc2)NC(=O)CSC[C@@H](C(=O)N[C@@H](Cc2c[nH]c3ccccc23)C(=O)N[C@H](C(=O)N[C@@H](Cc2c[nH]c3ccccc23)C(=O)N[C@@H](CC(C)C)C(=O)N[C@@H](CC(C)C)C(=O)N[C@@H](CO)C(=O)NCC(=O)N[C@@H](CCCCN)C(=O)N[C@@H](CCCCN)C(=O)N[C@@H](CCCCN)C(=O)N[C@@H](CCCCN)C(=O)O)C(C)C)NC(=O)[C@H](CCC(N)=O)NC(=O)[C@H](CC(=O)O)NC(=O)[C@H](Cc2ccc(O)cc2)NC(=O)[C@H](Cc2c[nH]c3ccccc23)NC(=O)[C@H](CCCNC(=N)N)NC(=O)[C@H](CC(C)C)NC(=O)[C@H](C(C)C)NC(=O)[C@H](CCC(=O)O)NC1=O` [A4Ktag] ({CH2CO}-YIEVLRWYDQCWVWLLSGKKKK-OH; thioether N-11; C-terminus assumed): the “presence/binding of labelled peptide” value in data set [2] is given as “observed inside all cells”.

The values are drawn from paper PMC12905488, “De novo cyclic peptides allow visualisation of the monomeric and functional amyloid conformations of the kinase RIPK3” (Biochemical Journal, 2026).
